system: 24-HC in the brain; test: Quantification test of 24-HC in mouse brain after repeated oral administration; assay type: in vivo; settings: 30 mg/kg orally once a day for 3 days, female C57BL/6N mice, brain 24-HC at 16 hours after the third administration, relative to control group, read-out: Decreasing Rate in 30 mg/kg (%)
Experimental: Animals used were 6-week-old female C57BL/6N mice (3 mice/group). A test compound was suspended in a 0.5% aqueous methylcellulose [133-14255 WAKO] solution (1 mg/mL). The body weight of the mice was measured, and the solution was forcibly administered orally and repeatedly once a day for 3 days. At 16 hours after the third administration, half of the brain was harvested, and the amount of 24-HC was measured.
The wet weight of the brain was measured, and the brain was homogenized with 4-fold amount of saline. This solution was used as a brain extract. The 24-HC in the brain extract was extracted with an acetonitrile solution (98% acetonitrile, 1.98% methanol, 0.02% formic acid), and quantified by HPLC. The average value of 24-HC amount was calculated and the results are shown in relative values with the control group as 100%.

**Q.** How did the inhibition in vivo at 30 mg/kg turn out when `N#C[C@H]1CCCN1C(=O)C1CCN(c2cnccc2-n2cc(Cl)cn2)CC1` [Example 33, (2R)-1-((1-(4-(4-chloro-1H-pyrazol-1-yl)pyridin-3-yl)piperidin-4-yl)carbonyl)pyrrolidine-2-carbonitrile] was run?
**A.** 49%

**Q.** How did the inhibition in vivo at 30 mg/kg turn out when `Cc1cnn(-c2ccncc2N2CCC(C(=O)N3CCC[C@@H]3C(N)=O)CC2)c1` [Example 124, 1-((1-(4-(4-methyl-1H-pyrazol-1-yl)pyridin-3-yl)piperidin-4-yl)carbonyl)-D-prolinamide] was run?
**A.** 59%

**Q.** Which inhibition in vivo at 30 mg/kg does the source give for `Cc1cnn(-c2ccncc2N2CCC(C(=O)N3CCC[C@]3(C)C#N)CC2)c1` [Example 127, (2R)-2-methyl-1-((1-(4-(4-methyl-1H-pyrazol-1-yl)pyridin-3-yl)piperidin-4-yl)carbonyl)pyrrolidine-2-carbonitrile] here?
**A.** 44%

**Q.** How did the inhibition in vivo at 30 mg/kg turn out when `Cc1cnc(-c2ccncc2N2CCC(C(=O)N3CCC[C@@H]3C#N)CC2)s1` [Example 129, (2R)-1-((1-(4-(5-methyl-1,3-thiazol-2-yl)pyridin-3-yl)piperidin-4-yl)carbonyl)pyrrolidine-2-carbonitrile] was run?
**A.** 44%

**Q.** How did the inhibition in vivo at 30 mg/kg turn out when `Cc1cnn(-c2ccncc2N2CCC(C(=O)N3CC(F)(F)C[C@@H]3C#N)CC2)c1` [Example 130, (2R)-4,4-difluoro-1-((1-(4-(4-methyl-1H-pyrazol-1-yl)pyridin-3-yl)piperidin-4-yl)carbonyl)pyrrolidine-2-carbonitrile] was run?
**A.** 54%

target: T1, human CH24H (Homo sapiens, UniProt Q9Y6A2); test: Measurement of CH24H inhibitory activity (24-HC produced from [14C] cholesterol by human CH24H lysate); assay type: biochemical; settings: 1 μM test compound, [14C] cholesterol 15 μM, 37° C. for 5 hr, read-out: Inhibitory Rate in 1 μM (%)
T1 construct: Using Full-Length Mammalian Gene Collection No. 4819975 (Invitrogen) as a template; made in house; host or cells: FreeStyle 293-F cells, transient transfection with pcDNA3.1(+)/hCH24H; lysate supernatant, not purified
T1 sequence (Q9Y6A2 whole entry): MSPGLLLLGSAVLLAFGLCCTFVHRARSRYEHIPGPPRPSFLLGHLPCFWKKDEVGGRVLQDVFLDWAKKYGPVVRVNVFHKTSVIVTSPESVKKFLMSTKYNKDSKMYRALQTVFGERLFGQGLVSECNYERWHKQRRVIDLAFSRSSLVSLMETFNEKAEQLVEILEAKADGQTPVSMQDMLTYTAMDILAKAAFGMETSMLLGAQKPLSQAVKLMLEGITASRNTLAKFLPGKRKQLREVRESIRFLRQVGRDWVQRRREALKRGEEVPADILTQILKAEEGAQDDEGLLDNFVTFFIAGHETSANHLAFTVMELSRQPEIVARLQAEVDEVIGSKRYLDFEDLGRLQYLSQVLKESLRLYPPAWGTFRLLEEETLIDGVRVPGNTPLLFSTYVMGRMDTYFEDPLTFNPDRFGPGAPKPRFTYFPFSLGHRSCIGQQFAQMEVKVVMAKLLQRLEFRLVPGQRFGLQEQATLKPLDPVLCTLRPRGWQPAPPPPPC
Procedure, shortened: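 Human CH24H lysate from FreeStyle 293 cells was incubated with compound and 15 μM [14C]cholesterol in 50 mM potassium phosphate pH 7.4 with 0.1% BSA, for 5 h at 37 °C. The 24-HC formed was extracted, separated by silica TLC and quantified by radioactivity. % inhibition was calculated versus no-compound reactions.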

**Q.** `N#C[C@H]1CCCN1C(=O)C1CCN(c2cnccc2-n2cc(Cl)cn2)CC1` [Example 33, (2R)-1-((1-(4-(4-chloro-1H-pyrazol-1-yl)pyridin-3-yl)piperidin-4-yl)carbonyl)pyrrolidine-2-carbonitrile] was tested. Which inhibition at 1 µM did it give?
**A.** 96%

**Q.** Which inhibition at 1 µM does the source give for `Cc1cnn(-c2ccncc2N2CCC(C(=O)N3CCC[C@@H]3C(N)=O)CC2)c1` [Example 124, 1-((1-(4-(4-methyl-1H-pyrazol-1-yl)pyridin-3-yl)piperidin-4-yl)carbonyl)-D-prolinamide] here?
**A.** 81%

**Q.** How did the inhibition at 1 µM turn out when `Cc1cnn(-c2ccncc2N2CCC(C(=O)N3CCC[C@]3(C)C#N)CC2)c1` [Example 127, (2R)-2-methyl-1-((1-(4-(4-methyl-1H-pyrazol-1-yl)pyridin-3-yl)piperidin-4-yl)carbonyl)pyrrolidine-2-carbonitrile] was run?
**A.** 79%

**Q.** For `Cc1cnc(-c2ccncc2N2CCC(C(=O)N3CCC[C@@H]3C#N)CC2)s1` [Example 129, (2R)-1-((1-(4-(5-methyl-1,3-thiazol-2-yl)pyridin-3-yl)piperidin-4-yl)carbonyl)pyrrolidine-2-carbonitrile], which inhibition at 1 µM is on record?
**A.** 82%

**Q.** For `Cc1cnn(-c2ccncc2N2CCC(C(=O)N3CC(F)(F)C[C@@H]3C#N)CC2)c1` [Example 130, (2R)-4,4-difluoro-1-((1-(4-(4-methyl-1H-pyrazol-1-yl)pyridin-3-yl)piperidin-4-yl)carbonyl)pyrrolidine-2-carbonitrile], which inhibition at 1 µM is on record?
**A.** 93%

**Q.** With `Cc1cnn(-c2ccncc2N2CCC(C(=O)N(C)C3CCOCC3)CC2)c1` [Example 296, N-methyl-1-(4-(4-methyl-1H-pyrazol-1-yl)pyridin-3-yl)-N-(tetrahydro-2H-pyran-4-yl)piperidine-4-carboxamide] as the compound, how does the inhibition at 1 µM read?
**A.** 86%

**Q.** For `Cc1cnn(-c2ccncc2N2CCN(C(=O)N(C)Cc3ccc(F)cc3)CC2)c1` [Example 297, N-(4-fluorobenzyl)-N-methyl-4-(4-(4-methyl-1H-pyrazol-1-yl)pyridin-3-yl)piperazine-1-carboxamide], which inhibition at 1 µM is on record?
**A.** 84%

**Q.** With `CN(Cc1ccccc1)C(=O)N1CCN(c2cncnc2-c2ccccc2)CC1` [Example 298, N-benzyl-N-methyl-4-(4-phenylpyrimidin-5-yl)piperazine-1-carboxamide] as the compound, how does the inhibition at 1 µM read?
**A.** 79%

**Q.** `CO[C@H]1CCN(C(=O)C2CCN(c3cnccc3-n3cc(Cl)cn3)CC2)C1` [Example 299, (1-(4-(4-chloro-1H-pyrazol-1-yl)pyridin-3-yl)piperidin-4-yl)((3S)-3-methoxypyrrolidin-1-yl)methanone] was tested. Which inhibition at 1 µM did it give?
**A.** 84%

**Q.** With `CO[C@@H]1CCN(C(=O)C2CCN(c3cnccc3-n3cc(Cl)cn3)CC2)C1` [Example 300, (1-(4-(4-chloro-1H-pyrazol-1-yl)pyridin-3-yl)piperidin-4-yl)((3R)-3-methoxypyrrolidin-1-yl)methanone] as the compound, how does the inhibition at 1 µM read?
**A.** 83%

**Q.** `CO[C@H]1CCN(C(=O)C2CCN(c3cnccc3-n3cc(C)cn3)CC2)C1` [Example 301, ((3S)-3-methoxypyrrolidin-1-yl)(1-(4-(4-methyl-1H-pyrazol-1-yl)pyridin-3-yl)piperidin-4-yl)methanone] was tested. Which inhibition at 1 µM did it give?
**A.** 86%

**Q.** How did the inhibition at 1 µM turn out when `CO[C@@H]1CCN(C(=O)C2CCN(c3cnccc3-n3cc(C)cn3)CC2)C1` [Example 302, ((3R)-3-methoxypyrrolidin-1-yl)(1-(4-(4-methyl-1H-pyrazol-1-yl)pyridin-3-yl)piperidin-4-yl)methanone] was run?
**A.** 87%

**Q.** `CO[C@H]1CCN(C(=O)C2CCN(c3cncnc3-c3ccc(F)cc3)CC2)C1` [Example 303, (1-(4-(4-fluorophenyl)pyrimidin-5-yl)piperidin-4-yl)((3S)-3-methoxypyrrolidin-1-yl)methanone] was tested. Which inhibition at 1 µM did it give?
**A.** 85%

**Q.** `CO[C@@H]1CCN(C(=O)C2CCN(c3cncnc3-c3ccc(F)cc3)CC2)C1` [Example 304, (1-(4-(4-fluorophenyl)pyrimidin-5-yl)piperidin-4-yl)((3R)-3-methoxypyrrolidin-1-yl)methanone] was tested. Which inhibition at 1 µM did it give?
**A.** 86%

**Q.** With `Cc1cnn(-c2ccncc2N2CCC(C(=O)N(C)[C@H]3CCOC3)CC2)c1` [Example 305, N-methyl-1-(4-(4-methyl-1H-pyrazol-1-yl)pyridin-3-yl)-N-((3S)-tetrahydrofuran-3-yl)piperidine-4-carboxamide] as the compound, how does the inhibition at 1 µM read?
**A.** 85%

**Q.** How did the inhibition at 1 µM turn out when `Cc1cnn(-c2ccncc2N2CCC(C(=O)N(C)[C@@H]3CCOC3)CC2)c1` [Example 306, N-methyl-1-(4-(4-methyl-1H-pyrazol-1-yl)pyridin-3-yl)-N-((3R)-tetrahydrofuran-3-yl)piperidine-4-carboxamide] was run?
**A.** 85%

**Q.** How did the inhibition at 1 µM turn out when `CN(C(=O)C1CCN(c2cnccc2-n2cc(Cl)cn2)CC1)[C@H]1CCOC1` [Example 307, 1-(4-(4-chloro-1H-pyrazol-1-yl)pyridin-3-yl)-N-methyl-N-((3S)-tetrahydrofuran-3-yl)piperidine-4-carboxamide] was run?
**A.** 81%

**Q.** With `CN(C(=O)C1CCN(c2cnccc2-n2cc(Cl)cn2)CC1)[C@@H]1CCOC1` [Example 308, 1-(4-(4-chloro-1H-pyrazol-1-yl)pyridin-3-yl)-N-methyl-N-((3R)-tetrahydrofuran-3-yl)piperidine-4-carboxamide] as the compound, how does the inhibition at 1 µM read?
**A.** 83%

**Q.** How did the inhibition at 1 µM turn out when `CN(C(=O)C1CCN(c2cncnc2-c2ccc(F)cc2)CC1)[C@H]1CCOC1` [Example 309, 1-(4-(4-fluorophenyl)pyrimidin-5-yl)-N-methyl-N-((3S)-tetrahydrofuran-3-yl)piperidine-4-carboxamide] was run?
**A.** 85%

**Q.** Which inhibition at 1 µM does the source give for `CN(C(=O)C1CCN(c2cncnc2-c2ccc(F)cc2)CC1)[C@@H]1CCOC1` [Example 310, 1-(4-(4-fluorophenyl)pyrimidin-5-yl)-N-methyl-N-((3R)-tetrahydrofuran-3-yl)piperidine-4-carboxamide] here?
**A.** 82%

**Q.** With `Cc1cnn(-c2ccncc2N2CCC(C(=O)N(CCF)C3CCOCC3)CC2)c1` [Example 311, N-(2-fluoroethyl)-1-(4-(4-methyl-1H-pyrazol-1-yl)pyridin-3-yl)-N-(tetrahydro-2H-pyran-4-yl)piperidine-4-carboxamide] as the compound, how does the inhibition at 1 µM read?
**A.** 79%

**Q.** `Cc1cnn(-c2ccncc2N2CCC(C(=O)N(CCF)[C@H]3CCOC3)CC2)c1` [Example 312, N-(2-fluoroethyl)-1-(4-(4-methyl-1H-pyrazol-1-yl)pyridin-3-yl)-N-((3S)-tetrahydrofuran-3-yl)piperidine-4-carboxamide] was tested. Which inhibition at 1 µM did it give?
**A.** 71%

**Q.** Which inhibition at 1 µM does the source give for `Cc1cnn(-c2ccncc2N2CCC(C(=O)N(CCF)[C@@H]3CCOC3)CC2)c1` [Example 313, N-(2-fluoroethyl)-1-(4-(4-methyl-1H-pyrazol-1-yl)pyridin-3-yl)-N-((3R)-tetrahydrofuran-3-yl)piperidine-4-carboxamide] here?
**A.** 82%

**Q.** For `O=C(N1CCN(c2cncnc2-c2ccccc2)CC1)N(CCF)Cc1ccccc1` [Example 314, N-benzyl-N-(2-fluoroethyl)-4-(4-phenylpyrimidin-5-yl)piperazine-1-carboxamide], which inhibition at 1 µM is on record?
**A.** 91%

**Q.** Which inhibition at 1 µM does the source give for `Cc1cnn(-c2ccncc2N2CCN(C(=O)N(CCF)Cc3ccc(F)cc3)CC2)c1` [Example 315, N-(4-fluorobenzyl)-N-(2-fluoroethyl)-4-(4-(4-methyl-1H-pyrazol-1-yl)pyridin-3-yl)piperazine-1-carboxamide] here?
**A.** 94%

**Q.** Which inhibition at 1 µM does the source give for `Cc1cnc(-c2ccncc2N2CCC(C(=O)N3CC[C@H](F)C3)CC2)s1` [Example 316, ((3S)-3-fluoropyrrolidin-1-yl)(1-(4-(5-methyl-1,3-thiazol-2-yl)pyridin-3-yl)piperidin-4-yl)methanone] here?
**A.** 94%

**Q.** How did the inhibition at 1 µM turn out when `Cc1cnc(-c2ccncc2N2CCC(C(=O)N3CC(F)C3)CC2)s1` [Example 317, (3-fluoroazetidin-1-yl) (1-(4-(5-methyl-1,3-thiazol-2-yl)pyridin-3-yl)piperidin-4-yl)methanone] was run?
**A.** 95%

**Q.** `O=C(C1CCN(c2cnccc2-n2cc(Br)cn2)CC1)N1CC[C@H](F)C1` [Example 318, (1-(4-(4-bromo-1H-pyrazol-1-yl)pyridin-3-yl)piperidin-4-yl)((3S)-3-fluoropyrrolidin-1-yl)methanone] was tested. Which inhibition at 1 µM did it give?
**A.** 94%

**Q.** With `O=C(C1CCN(c2cnccc2-n2cc(Br)cn2)CC1)N1CC(F)C1` [Example 319, (1-(4-(4-bromo-1H-pyrazol-1-yl)pyridin-3-yl)piperidin-4-yl) (3-fluoroazetidin-1-yl)methanone] as the compound, how does the inhibition at 1 µM read?
**A.** 96%

**Q.** `O=C(C1CCN(c2cnccc2-n2cc(C3CC3)cn2)CC1)N1CC[C@H](F)C1` [Example 322, (1-(4-(4-cyclopropyl-1H-pyrazol-1-yl)pyridin-3-yl)piperidin-4-yl)((3S)-3-fluoropyrrolidin-1-yl)methanone] was tested. Which inhibition at 1 µM did it give?
**A.** 93%

**Q.** With `O=C(C1CCN(c2cnccc2-n2cc(C3CC3)cn2)CC1)N1CC(F)C1` [Example 323, (1-(4-(4-cyclopropyl-1H-pyrazol-1-yl)pyridin-3-yl)piperidin-4-yl)(3-fluoroazetidin-1-yl)methanone] as the compound, how does the inhibition at 1 µM read?
**A.** 93%
